Like-named read-outs stand apart in the source and are kept apart here.
Key:
Assay in all cases: greenhouse post-emergence herbicidal test
POLAV = type: in vivo, Polygonum aviculare; design: key: rating on a scale from 0 to 100
In short: (§1)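 Post-emergence greenhouse test: plants in loamy sand, sprayed at 1–15 cm height with aqueous spray liquor from 10% emulsion concentrates, kept at 10-25 °C or 20-35 °C by species. Damage scored 0–100 (100 = complete destruction), usually 20 days after treatment. Expected additive effect E from Colby: E=X+Y−(X·Y/100).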

POLCO = type: in vivo, Polygonum convolvulus; design: key to herbicidal activity against POLCO found: rating on a scale from 0 to 100; conditions: post emergence
In short: as §1

SASKR = type: in vivo, Salsola kali; design: key: scale 0 to 100
In short: as §1

[1] = 6 days after treatment, g/ha a.i.: I.1 31.25, naptalam 50, mixture 31.25+50
[2] = 6 days after treatment, g/ha a.i.: I.1 31.25, naptalam 200, mixture 31.25+200
[3] = 6 days after treatment, g/ha a.i.: I.1 62.5, B.96 70, mixture 62.5+70
[4] = 6 days after treatment, g/ha a.i.: I.1 62.5, B.96 140, mixture 62.5+140
[5] = 6 days after treatment, g/ha a.i.: I.1 62.5, naptalam 50, mixture 62.5+50
[6] = 6 days after treatment, g/ha a.i.: I.1 62.5, naptalam 200, mixture 62.5+200
[7] = a.i. g/ha: I.1 15.6, B.190 62.5, 20 days after treatment
[8] = a.i. g/ha: I.1 31.25, bentazon Na 125, 20 days after treatment

O=C(O)c1cc(C2CC2)nc2onc(C3CC3)c12 [I.1]
herbicidal activity against POLAV found (POLAV; 125 g/ha a.i.): 65
herbicidal activity against POLAV found (POLAV; [1]): 70
herbicidal activity against POLAV found (POLAV; [2]): 70
herbicidal activity against POLAV found (POLAV; [3]): 70
herbicidal activity against POLAV found (POLAV; [4]): 70
herbicidal activity against POLAV found (POLAV; [5]): 70
herbicidal activity against POLAV found (POLAV; 6 days after treatment, g/ha a.i.: I.1 62.5, naptalam 100, mixture 62.5+100): 70
herbicidal activity against POLAV found (POLAV; [6]): 70
herbicidal activity against POLAV found (POLAV; [7]): 45%
herbicidal activity against POLAV found (POLAV; [8]): 80%
pest or weed control at 31.25 g/ha (POLCO; Fallopia convolvulus, post-emergence, 480 h, I.1 alone 31.25 g/ha a.i., read-out: herbicidal activity against POLCO found): 0%
pest or weed control at 62.5 g/ha (POLCO; Fallopia convolvulus, post-emergence, 480 h, I.1 alone 62.5 g/ha a.i., read-out: herbicidal activity against POLCO found): 65%
pest or weed control at 125 g/ha (POLCO; Fallopia convolvulus, post-emergence, 480 h, I.1 alone 125 g/ha a.i., read-out: herbicidal activity against POLCO found): 65%
pest or weed control at 31.25 g/ha (POLCO; Fallopia convolvulus, post-emergence, 480 h, I.1 31.25 g/ha a.i., read-out: herbicidal activity against POLCO found): 20%
pest or weed control at 31.25 g/ha (POLCO; Fallopia convolvulus, post-emergence, 480 h, single active, 31.25 g/ha a.i., read-out: herbicidal activity against POLCO found): 20%
herbicidal activity against POLCO found (POLCO; 6 days after treatment, g/ha a.i.: I.1 31.25, B.96 70, mixture 31.25+70): 35
herbicidal activity against POLCO found (POLCO; 6 days after treatment, g/ha a.i.: I.1 31.25, B.96 140, mixture 31.25+140): 35
herbicidal activity against POLCO found (POLCO; [1]): 35
herbicidal activity against POLCO found (POLCO; [3]): 70
herbicidal activity against POLCO found (POLCO; [4]): 70
herbicidal activity against POLCO found (POLCO; [5]): 70
herbicidal activity against POLCO found (POLCO; I.1 15.6 g/ha, B.103 7.5 g/ha a.i.): 10
herbicidal activity against POLCO found (POLCO; I.1 15.62 g/ha, B.167 62.5 g/ha a.i.): 10
herbicidal activity against POLCO found (POLCO; I.1 15.62 g/ha, B.167 125 g/ha a.i.): 10
herbicidal activity against POLCO found (POLCO; I.1 15.62 g/ha, B.89 12.5 g/ha a.i.): 0
herbicidal activity against POLCO found (POLCO; I.1 62.5 g/ha, B.103 7.5 g/ha a.i.): 40
herbicidal activity against POLCO found (POLCO; I.1 62.5 g/ha, B.103 15 g/ha a.i.): 40
herbicidal activity against POLCO found (POLCO; I.1 62.5 g/ha, B.167 62.5 g/ha a.i.): 40
herbicidal activity against POLCO found (POLCO; I.1 62.5 g/ha, B.167 125 g/ha a.i.): 40
herbicidal activity against POLCO found (POLCO; [7]): 30%
herbicidal activity against POLCO found (POLCO; a.i. g/ha: I.1 15.6, B.67 125, 20 days after treatment): 0%
herbicidal activity against POLCO found (POLCO; a.i. g/ha: I.1 20.8, B.67 62.5, 20 days after treatment): 30%
herbicidal activity against POLCO found (POLCO; a.i. g/ha: I.1 20.8, B.79 25, 20 days after treatment): 50%
herbicidal activity against POLCO found (POLCO; a.i. g/ha: I.1 31.25, B.190 62.5, 20 days after treatment): 50%
herbicidal activity against POLCO found (POLCO; a.i. g/ha: I.1 31.25, B.67 125, 20 days after treatment): 0%
herbicidal activity against POLCO found (POLCO; [8]): 50%
herbicidal activity against POLCO found (POLCO; a.i. g/ha: I.1 62.5, B.67 62.5, 20 days after treatment): 65%
herbicidal activity against POLCO found (POLCO; a.i. g/ha: I.1 62.5, B.79 25, 20 days after treatment): 75%
herbicidal activity against POLCO found (POLCO; application rate a.i.: I.1 31.25 g/ha, B.100 (isoxaflutole) 12.5 g/ha, alone or as mixture (composition 1.100)): 70
herbicidal activity against POLCO found (POLCO; application rate a.i.: I.1 31.25 g/ha, B.139 (pyroxasulfone) 12.5 g/ha, alone or as mixture (composition 1.139)): 65
herbicidal activity against POLCO found (POLCO; application rate a.i.: I.1 31.25 g/ha, B.40 (imazethapyr) 7.5 g/ha, alone or as mixture (composition 1.40)): 20
herbicidal activity against POLCO found (POLCO; application rate a.i.: I.1 62.5 g/ha, B.107 (topramezone) 6 g/ha, alone or as mixture (composition 1.107)): 75
herbicidal activity against POLCO found (POLCO; application rate a.i.: I.1 62.5 g/ha, B.84 (paraquat-dichloride) 17.5 g/ha, alone or as mixture (composition 1.84)): 90
herbicidal activity against POLCO found (POLCO; applied alone at 31.25 g/ha a.i.): 65
herbicidal activity against POLCO found (POLCO; applied alone at 62.5 g/ha a.i.): 90
herbicidal activity against POLCO found (POLCO; applied alone at 125 g/ha a.i.): 85
herbicidal activity against POLCO found (POLCO; g/ha a.i.: I.1 31.25, B.63 1, mixture 31.25+1): 30
herbicidal activity against POLCO found (POLCO; g/ha a.i.: I.1 125, B.63 0.5, mixture 125+0.5): 80
herbicidal activity against POLCO found (POLCO; g/ha a.i.: I.1 125, B.63 1, mixture 125+1): 80
herbicidal activity against SASKAR found (SASKR; 31.25 g/ha a.i.): 60
herbicidal activity against SASKR found (SASKR; 31.25 g/ha a.i.): 20
herbicidal activity against SASKR found (SASKR; [2]): 65
herbicidal activity against SASKR found (SASKR; [4]): 65
herbicidal activity against SASKR found (SASKR; [5]): 65
herbicidal activity against SASKR found (SASKR; [6]): 65
herbicidal activity against SASKR found (SASKR; application rate a.i.: I.1 31.25 g/ha, B.84 (paraquat-dichloride) 17.5 g/ha, alone or as mixture (composition 1.84)): 10

Reference: US10881110B2, “Herbicidal compositions comprising isoxazolo[5,4-b]pyridines” (BASF SE, priority 2014, dated 2021)
